Reference: ChEMBL document CHEMBL1127062 (J Med Chem, 1993)

Target: Ryanodine receptor 1 (Oryctolagus cuniculus, UniProt P11716)
Test: Affinity for sarcoplasmic reticular calcium release channel (SR CRC) of rabbit skeletal membrane vesicles

Sequence of Ryanodine receptor 1 (P11716 whole entry): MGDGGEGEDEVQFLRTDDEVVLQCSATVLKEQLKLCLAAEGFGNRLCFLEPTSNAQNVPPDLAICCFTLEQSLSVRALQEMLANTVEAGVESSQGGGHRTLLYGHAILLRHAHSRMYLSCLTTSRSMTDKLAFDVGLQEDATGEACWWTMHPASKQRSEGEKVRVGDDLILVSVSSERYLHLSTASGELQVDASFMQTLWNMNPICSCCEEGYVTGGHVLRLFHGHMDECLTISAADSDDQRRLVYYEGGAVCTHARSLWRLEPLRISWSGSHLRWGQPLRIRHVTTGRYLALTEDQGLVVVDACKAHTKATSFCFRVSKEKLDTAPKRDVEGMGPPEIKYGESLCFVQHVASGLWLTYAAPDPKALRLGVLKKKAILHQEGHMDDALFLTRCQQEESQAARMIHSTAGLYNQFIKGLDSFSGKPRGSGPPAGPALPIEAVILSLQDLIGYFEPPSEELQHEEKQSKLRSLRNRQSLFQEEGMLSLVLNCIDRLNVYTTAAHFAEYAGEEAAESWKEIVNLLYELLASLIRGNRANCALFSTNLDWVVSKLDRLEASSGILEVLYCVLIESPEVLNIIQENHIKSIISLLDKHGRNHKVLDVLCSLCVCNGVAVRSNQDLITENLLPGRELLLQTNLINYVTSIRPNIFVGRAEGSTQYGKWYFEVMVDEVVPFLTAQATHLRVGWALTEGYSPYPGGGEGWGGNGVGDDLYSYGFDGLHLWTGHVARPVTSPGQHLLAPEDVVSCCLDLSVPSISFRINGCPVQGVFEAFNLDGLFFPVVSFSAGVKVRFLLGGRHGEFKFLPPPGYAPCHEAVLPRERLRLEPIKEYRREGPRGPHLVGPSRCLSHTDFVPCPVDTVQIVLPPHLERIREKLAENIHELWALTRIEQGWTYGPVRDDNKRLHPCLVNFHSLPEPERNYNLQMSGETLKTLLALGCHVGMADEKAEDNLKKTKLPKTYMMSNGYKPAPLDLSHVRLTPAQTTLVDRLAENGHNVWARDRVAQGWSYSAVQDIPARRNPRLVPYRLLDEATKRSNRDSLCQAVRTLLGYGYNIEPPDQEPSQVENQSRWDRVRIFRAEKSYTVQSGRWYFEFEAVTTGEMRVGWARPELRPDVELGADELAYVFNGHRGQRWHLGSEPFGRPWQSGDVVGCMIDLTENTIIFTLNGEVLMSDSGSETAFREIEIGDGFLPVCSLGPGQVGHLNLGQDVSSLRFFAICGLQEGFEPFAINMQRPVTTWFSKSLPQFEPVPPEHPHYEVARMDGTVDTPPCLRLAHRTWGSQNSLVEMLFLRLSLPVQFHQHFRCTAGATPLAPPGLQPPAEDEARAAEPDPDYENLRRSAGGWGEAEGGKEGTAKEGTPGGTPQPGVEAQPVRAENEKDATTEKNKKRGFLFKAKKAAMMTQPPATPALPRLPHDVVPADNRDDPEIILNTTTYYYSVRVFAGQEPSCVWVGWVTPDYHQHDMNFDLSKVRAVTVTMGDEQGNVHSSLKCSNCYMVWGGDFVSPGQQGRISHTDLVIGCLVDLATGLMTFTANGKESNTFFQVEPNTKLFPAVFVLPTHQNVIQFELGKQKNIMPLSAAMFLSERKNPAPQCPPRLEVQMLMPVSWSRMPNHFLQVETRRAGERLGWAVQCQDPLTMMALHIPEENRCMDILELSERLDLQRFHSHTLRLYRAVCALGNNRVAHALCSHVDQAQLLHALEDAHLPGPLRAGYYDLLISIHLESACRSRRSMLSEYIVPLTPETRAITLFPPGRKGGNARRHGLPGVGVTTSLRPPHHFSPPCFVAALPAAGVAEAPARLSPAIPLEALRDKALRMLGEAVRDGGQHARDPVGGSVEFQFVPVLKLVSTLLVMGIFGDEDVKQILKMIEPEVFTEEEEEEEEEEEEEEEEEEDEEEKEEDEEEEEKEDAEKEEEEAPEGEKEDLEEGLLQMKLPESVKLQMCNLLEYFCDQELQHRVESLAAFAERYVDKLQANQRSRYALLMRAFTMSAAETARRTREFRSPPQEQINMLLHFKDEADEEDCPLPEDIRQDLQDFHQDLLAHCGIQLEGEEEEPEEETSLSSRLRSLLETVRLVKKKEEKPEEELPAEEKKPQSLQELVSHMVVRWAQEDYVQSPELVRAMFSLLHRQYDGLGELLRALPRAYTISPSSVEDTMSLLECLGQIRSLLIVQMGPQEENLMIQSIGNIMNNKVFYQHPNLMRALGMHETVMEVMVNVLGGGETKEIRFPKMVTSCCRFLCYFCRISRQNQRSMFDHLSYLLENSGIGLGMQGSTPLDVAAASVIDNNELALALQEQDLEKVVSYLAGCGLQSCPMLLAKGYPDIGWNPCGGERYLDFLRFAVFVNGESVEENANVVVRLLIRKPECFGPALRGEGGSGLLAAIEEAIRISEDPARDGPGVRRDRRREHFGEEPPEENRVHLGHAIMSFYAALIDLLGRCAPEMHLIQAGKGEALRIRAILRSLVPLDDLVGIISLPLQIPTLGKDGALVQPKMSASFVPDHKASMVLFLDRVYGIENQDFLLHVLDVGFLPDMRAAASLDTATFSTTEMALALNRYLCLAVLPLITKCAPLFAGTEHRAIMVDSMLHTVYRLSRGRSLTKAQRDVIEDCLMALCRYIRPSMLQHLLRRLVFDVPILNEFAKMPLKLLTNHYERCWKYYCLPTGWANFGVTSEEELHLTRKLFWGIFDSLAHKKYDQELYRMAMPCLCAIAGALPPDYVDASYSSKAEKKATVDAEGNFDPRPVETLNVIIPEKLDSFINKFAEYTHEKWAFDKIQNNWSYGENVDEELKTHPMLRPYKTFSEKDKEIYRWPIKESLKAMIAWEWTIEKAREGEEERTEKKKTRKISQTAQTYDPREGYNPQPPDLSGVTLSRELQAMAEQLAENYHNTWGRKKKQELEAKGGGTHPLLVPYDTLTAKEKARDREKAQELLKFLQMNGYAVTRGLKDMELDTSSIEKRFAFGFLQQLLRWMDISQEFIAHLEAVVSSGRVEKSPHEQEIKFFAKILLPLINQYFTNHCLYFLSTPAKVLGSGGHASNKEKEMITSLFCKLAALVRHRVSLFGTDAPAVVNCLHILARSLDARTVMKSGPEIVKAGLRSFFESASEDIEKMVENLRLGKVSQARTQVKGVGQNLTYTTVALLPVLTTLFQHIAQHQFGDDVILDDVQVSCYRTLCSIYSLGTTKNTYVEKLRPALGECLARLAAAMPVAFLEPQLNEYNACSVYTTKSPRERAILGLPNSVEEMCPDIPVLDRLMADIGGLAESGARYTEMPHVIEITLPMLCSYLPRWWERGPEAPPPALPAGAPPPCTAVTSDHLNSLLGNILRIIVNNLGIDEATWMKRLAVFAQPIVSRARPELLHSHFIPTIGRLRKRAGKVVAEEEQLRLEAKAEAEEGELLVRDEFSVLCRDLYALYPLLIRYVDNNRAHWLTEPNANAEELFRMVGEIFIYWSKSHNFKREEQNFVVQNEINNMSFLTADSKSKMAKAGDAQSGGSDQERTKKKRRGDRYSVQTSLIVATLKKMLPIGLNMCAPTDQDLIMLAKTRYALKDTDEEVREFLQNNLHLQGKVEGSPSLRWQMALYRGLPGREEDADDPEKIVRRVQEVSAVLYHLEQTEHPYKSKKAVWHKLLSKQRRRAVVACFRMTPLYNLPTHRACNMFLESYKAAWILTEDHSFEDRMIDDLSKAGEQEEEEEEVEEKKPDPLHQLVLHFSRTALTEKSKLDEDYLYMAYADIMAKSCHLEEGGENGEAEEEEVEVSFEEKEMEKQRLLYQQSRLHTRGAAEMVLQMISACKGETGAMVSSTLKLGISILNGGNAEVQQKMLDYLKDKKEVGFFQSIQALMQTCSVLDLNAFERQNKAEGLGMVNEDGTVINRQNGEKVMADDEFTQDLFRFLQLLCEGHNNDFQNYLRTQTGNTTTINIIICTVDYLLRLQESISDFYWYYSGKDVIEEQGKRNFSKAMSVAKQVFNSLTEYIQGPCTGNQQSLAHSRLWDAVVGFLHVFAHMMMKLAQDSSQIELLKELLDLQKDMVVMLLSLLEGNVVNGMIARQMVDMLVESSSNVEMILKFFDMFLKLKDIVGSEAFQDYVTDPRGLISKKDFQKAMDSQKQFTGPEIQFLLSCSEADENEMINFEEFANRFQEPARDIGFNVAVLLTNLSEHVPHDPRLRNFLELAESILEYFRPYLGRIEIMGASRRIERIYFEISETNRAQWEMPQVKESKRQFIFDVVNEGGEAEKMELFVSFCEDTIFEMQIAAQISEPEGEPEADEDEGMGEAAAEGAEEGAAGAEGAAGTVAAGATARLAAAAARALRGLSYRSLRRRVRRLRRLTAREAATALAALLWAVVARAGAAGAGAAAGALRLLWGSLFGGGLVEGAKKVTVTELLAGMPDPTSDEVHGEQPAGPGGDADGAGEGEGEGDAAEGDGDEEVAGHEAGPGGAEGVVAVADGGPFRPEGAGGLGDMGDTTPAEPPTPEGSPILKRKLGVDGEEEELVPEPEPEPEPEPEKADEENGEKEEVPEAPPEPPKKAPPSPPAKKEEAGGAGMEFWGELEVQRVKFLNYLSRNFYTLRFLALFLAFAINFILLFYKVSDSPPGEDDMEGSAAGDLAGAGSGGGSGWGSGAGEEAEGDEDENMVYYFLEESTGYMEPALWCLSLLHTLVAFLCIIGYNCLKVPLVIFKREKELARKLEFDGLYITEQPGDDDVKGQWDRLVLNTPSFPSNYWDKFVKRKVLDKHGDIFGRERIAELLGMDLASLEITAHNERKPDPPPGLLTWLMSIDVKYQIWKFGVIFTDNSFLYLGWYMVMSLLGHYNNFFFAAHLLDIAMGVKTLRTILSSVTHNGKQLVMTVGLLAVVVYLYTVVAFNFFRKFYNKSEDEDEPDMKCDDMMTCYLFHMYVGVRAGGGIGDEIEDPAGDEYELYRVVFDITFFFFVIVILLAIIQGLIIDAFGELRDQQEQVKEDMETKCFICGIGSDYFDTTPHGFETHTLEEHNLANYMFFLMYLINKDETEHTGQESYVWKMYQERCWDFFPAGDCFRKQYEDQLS

Row | SMILES | IC50 [nM]
1 | CC1CCC2(O)C3(OC4(O)C[C@]2(C)C2(O)[C@H](OC(=O)c5ccc[nH]5)C(O)(C(C)C)C4(C)C32O)[C@@H]1OC(=O)CN (some centres not stated) [GLYCYLRYANODINE] | 1.8
2 | CC1CCC2(O)C3(OC4(O)C[C@]2(C)C2(O)[C@H](OC(=O)c5ccc[nH]5)C(O)(C(C)C)C4(C)C32O)[C@@H]1OC(=O)CNC(=O)OCc1ccccc1 (some centres not stated) | 4.8
3 | C=C1CCC2(O)C3(OC4(O)C[C@]2(C)C2(O)[C@H](OC(=O)c5ccc[nH]5)C(O)(C(C)C)C4(C)C32O)[C@@H]1O (stereo in doubt) [ANHYDRORYANIDINE] | > 10000
4 | C=C1CCC2(O)C3(OC4(O)C[C@]2(C)C2(O)[C@H](OC(=O)c5ccc[nH]5)C(O)(C(C)C)C4(C)C32O)[C@@H]1O (stereo in doubt; 2) [ANHYDRORYANIDINE] | 8.9
5 | CC1CCC2(O)C3(OC4(O)C[C@]2(C)C2(O)[C@H](OC(=O)c5ccc[nH]5)C(O)(C(C)C)C4(C)C32O)[C@@H]1OC(=O)CNC(=N)N (some centres not stated) | 1.8
6 | CC1CCC2(O)C3(OC4(O)C[C@]2(C)C2(O)[C@H](OC(=O)c5ccc[nH]5)C(O)(C(C)C)C4(C)C32O)[C@@H]1OC(=O)CCN=C(NC(=O)OCc1ccccc1)NC(=O)OCc1ccccc1 (some centres not stated) | 43.6
7 | CC1CCC2(O)C3(OC4(O)C[C@]2(C)C2(O)[C@H](OC(=O)c5ccc[nH]5)C(O)(C(C)C)C4(C)C32O)[C@@H]1OC(=O)CCNC(=O)OCc1ccccc1 (some centres not stated) | 5.9
8 | CC1CCC2(O)C3(OC4(O)C[C@]2(C)C2(O)[C@H](OC(=O)c5ccc[nH]5)C(O)(C(C)C)C4(C)C32O)[C@@H]1OC(=O)CCN (some centres not stated) | 2.6
9 | CC1CCC2(O)C3(OC4(O)C[C@]2(C)C2(O)[C@H](OC(=O)c5ccc[nH]5)C(O)(C(C)C)C4(C)C32O)[C@@H]1OC(=O)CCC(=O)O (some centres not stated) | > 1000
10 | CNC(=O)CCC(=O)O[C@@H]1C(C)CCC2(O)C13OC1(O)C[C@]2(C)C2(O)[C@H](OC(=O)c4ccc[nH]4)C(O)(C(C)C)C1(C)C32O (some centres not stated) | 49.4
11 | CC1CCC2(O)C3(OC4(O)C[C@]2(C)C2(O)[C@H](OC(=O)c5ccc[nH]5)C(O)(C(C)C)C4(C)C32O)[C@@H]1OC(=O)CCN=C(N)N (some centres not stated) | 1.1
12 | CC1CCC2(O)C3(OC4(O)C[C@]2(C)C2(O)[C@H](OC(=O)c5ccc[nH]5)C(O)(C(C)C)C4(C)C32O)[C@@H]1OC(=O)CNC(=NC(=O)OCc1ccccc1)NC(=O)OCc1ccccc1 (some centres not stated) | 136
